Legend:
F508del/G550E CFTR = molecular target: T1, F508del/G550E CFTR (Homo sapiens, UniProt P13569, DEL508-508/G550E); assay: YFP halide assay (YHA), HEK293, F508del/G550E; type: cell-based; conditions: 24 h; 1 μM forskolin + 0.5 μM potentiator
T1 construct: expressed in transfected cells; host or cells: HEK293
Experimental: HEK293 cells were transfected with 10–80 ng of plasmid encoding F508del, E92K, P67L, V232D, F508del/G550E, F508del/I539T or wild type CFTR and 20 ng of plasmid encoding YFP (H148Q/I152L/F47L) using jetPEI (Polyplus transfection). Directly after transfection, cells were seeded in black 96-well plates coated with poly-D-lysine at a density of 70,000 cells per well. The next day, cells were treated with corrector(s) for 24 h. After this incubation period, cells were washed twice with DPBS with Ca^2+ and Mg^2+. Subsequently, cells were treated with 10 μM forskolin and the desired concentration of potentiator in a volume of 40 μl and incubated at room temperature for 10 min, a time point optimized in previous experiments resulting in a good window (positive control/negative control > 2) and signal to background ratio. YFP fluorescence was measured using an EnVision plate reader (PerkinElmer). […] The excitation wavelength was 485 nm and the emission wavelength 530 nm. The capacity of potentiators to increase CFTR channel function was expressed as 1-(fluorescence 7 s after NaI addition (F)/fluorescence before NaI addition (F0)). […]
FIGURE 7 YHA assay using CFTR mutant overexpression in HEK293 cells. […] After washing, cells were triggered with forskolin (50 μM for F508del, E92K, V232D and F508del/I539T, 10 μM for P67L or 1 μM for F508del/G550E) and 0.5 μM potentiator and YFP fluorescence was measured. Efficacy was determined using 10 μM GLPG2222 as positive control and DMSO as negative control in the assay. […] All values containing these digits are best readings, e.g. GLPG2222 P67L EC50 206 (± 98), GLPG2222 E92K EC50 503 (± 109), VX809 F508del EC50 286 (± 35), VX809 P67L % of reference 88 (± 3), GLPG2737 F508del % of reference 138 (± 9). / GLPG2737, EC50 for P67L and E92K is printed as NA; left out because no value is given. / VX809, E92K EC50 error: 17, a digit may be missing.

wild type CFTR = wild type CFTR (Homo sapiens, UniProt P13569); assay: YFP halide assay, HEK293 cells transfected with wild type CFTR; type: cell-based; parameters: expressed in transfected cells; host or cells: HEK293
Experimental: HEK293 cells were transfected with 10–80 ng of plasmid encoding F508del, E92K, P67L, V232D, F508del/G550E, F508del/I539T or wild type CFTR and 20 ng of plasmid encoding YFP (H148Q/I152L/F47L) using jetPEI (Polyplus transfection). Directly after transfection, cells were seeded in black 96-well plates coated with poly-D-lysine at a density of 70,000 cells per well. The next day, cells were treated with corrector(s) for 24 h. After this incubation period, cells were washed twice with DPBS with Ca^2+ and Mg^2+. […] YFP fluorescence was measured using an EnVision plate reader (PerkinElmer). […] The capacity of potentiators to increase CFTR channel function was expressed as 1-(fluorescence 7 s after NaI addition (F)/fluorescence before NaI addition (F0)). […]
Due to the lack of any forskolin activated current upon correction of F508del carrying cells with GLPG2737, we wondered whether GLPG2737 would have an effect on wild type CFTR activity. […] Similar to the observations in the 24 h incubation experiment, a decrease in wild type channel activity was measured with increasing amounts of GLPG2737 (Figure 6B). Since the YFP halide assay was performed using an overexpressing cell system that might not be physiologically relevant, GLPG2737 was also evaluated on normal HBE cells.

T1 sequence (P13569 with tags, fused parts or gaps DEL508-508/G550E): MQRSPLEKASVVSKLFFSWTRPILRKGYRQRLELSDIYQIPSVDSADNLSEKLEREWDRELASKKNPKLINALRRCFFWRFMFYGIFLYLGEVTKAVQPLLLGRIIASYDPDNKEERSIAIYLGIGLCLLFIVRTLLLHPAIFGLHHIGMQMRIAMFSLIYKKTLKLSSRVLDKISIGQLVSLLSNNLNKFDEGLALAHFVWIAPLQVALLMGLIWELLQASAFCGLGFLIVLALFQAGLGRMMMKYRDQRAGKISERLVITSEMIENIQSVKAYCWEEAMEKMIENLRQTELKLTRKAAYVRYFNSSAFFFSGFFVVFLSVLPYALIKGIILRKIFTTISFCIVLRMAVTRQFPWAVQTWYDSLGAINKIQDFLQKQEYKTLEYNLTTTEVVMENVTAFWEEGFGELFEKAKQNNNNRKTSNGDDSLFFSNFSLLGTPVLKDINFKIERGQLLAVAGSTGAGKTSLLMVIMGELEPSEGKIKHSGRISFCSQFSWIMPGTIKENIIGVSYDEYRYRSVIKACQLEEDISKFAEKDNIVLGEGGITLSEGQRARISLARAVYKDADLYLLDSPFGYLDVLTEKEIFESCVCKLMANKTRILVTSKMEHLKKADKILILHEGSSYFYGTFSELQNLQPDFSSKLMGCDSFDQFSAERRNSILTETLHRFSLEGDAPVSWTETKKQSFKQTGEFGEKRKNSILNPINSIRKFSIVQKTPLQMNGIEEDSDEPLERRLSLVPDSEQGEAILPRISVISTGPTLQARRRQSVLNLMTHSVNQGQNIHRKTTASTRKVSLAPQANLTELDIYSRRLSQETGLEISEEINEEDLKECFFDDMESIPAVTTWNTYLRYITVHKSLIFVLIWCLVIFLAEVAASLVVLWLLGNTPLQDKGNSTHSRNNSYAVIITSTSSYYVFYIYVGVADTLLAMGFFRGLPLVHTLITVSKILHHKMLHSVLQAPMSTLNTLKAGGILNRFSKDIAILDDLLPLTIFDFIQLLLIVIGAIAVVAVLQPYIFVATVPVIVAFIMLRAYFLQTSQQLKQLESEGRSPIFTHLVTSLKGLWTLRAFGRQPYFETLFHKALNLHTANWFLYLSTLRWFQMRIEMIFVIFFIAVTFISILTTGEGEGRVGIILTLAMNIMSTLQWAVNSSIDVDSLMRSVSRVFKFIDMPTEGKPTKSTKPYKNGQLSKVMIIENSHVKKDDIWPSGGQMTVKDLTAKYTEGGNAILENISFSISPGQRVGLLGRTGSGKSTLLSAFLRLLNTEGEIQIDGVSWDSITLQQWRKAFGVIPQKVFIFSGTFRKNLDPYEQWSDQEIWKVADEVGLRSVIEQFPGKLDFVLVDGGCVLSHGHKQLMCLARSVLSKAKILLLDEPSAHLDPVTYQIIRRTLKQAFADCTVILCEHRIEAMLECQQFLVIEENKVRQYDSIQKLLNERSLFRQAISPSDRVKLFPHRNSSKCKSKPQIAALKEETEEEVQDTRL
Sequence of wild type CFTR (P13569 whole entry): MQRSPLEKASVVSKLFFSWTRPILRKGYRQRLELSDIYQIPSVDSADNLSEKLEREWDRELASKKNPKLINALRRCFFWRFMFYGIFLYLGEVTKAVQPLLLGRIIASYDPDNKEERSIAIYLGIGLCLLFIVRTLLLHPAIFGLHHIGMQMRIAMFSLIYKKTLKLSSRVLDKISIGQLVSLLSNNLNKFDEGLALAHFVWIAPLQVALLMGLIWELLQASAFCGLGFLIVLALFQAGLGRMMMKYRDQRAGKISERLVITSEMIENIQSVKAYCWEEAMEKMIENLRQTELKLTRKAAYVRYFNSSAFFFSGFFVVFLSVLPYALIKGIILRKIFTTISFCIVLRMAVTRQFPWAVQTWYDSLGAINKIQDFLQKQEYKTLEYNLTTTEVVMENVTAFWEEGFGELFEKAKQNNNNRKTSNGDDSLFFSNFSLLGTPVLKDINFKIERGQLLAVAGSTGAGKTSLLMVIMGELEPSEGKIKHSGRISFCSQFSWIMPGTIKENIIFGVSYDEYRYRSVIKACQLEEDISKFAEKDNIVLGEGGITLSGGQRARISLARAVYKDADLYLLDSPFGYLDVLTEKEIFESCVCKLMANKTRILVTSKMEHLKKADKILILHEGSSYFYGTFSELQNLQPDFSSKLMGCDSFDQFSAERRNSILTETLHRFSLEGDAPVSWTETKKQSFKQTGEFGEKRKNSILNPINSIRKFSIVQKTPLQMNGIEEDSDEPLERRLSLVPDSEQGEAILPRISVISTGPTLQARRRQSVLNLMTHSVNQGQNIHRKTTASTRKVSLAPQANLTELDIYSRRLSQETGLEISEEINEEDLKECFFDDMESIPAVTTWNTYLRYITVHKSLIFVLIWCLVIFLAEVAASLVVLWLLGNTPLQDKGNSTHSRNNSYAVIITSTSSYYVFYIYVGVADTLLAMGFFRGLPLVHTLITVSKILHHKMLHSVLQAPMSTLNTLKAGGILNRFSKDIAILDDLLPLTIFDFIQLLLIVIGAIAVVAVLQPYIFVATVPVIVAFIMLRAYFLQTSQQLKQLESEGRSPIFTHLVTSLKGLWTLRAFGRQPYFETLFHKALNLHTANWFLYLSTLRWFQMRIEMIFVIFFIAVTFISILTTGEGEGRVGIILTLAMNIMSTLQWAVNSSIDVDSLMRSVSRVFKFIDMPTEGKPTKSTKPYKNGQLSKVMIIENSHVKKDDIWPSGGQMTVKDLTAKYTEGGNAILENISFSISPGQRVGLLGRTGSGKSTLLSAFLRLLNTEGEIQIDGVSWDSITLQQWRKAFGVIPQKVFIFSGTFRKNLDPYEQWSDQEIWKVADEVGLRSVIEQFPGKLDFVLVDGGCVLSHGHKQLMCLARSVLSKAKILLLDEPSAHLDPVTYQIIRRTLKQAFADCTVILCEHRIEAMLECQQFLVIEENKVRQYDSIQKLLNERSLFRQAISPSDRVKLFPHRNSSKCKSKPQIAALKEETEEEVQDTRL

SMILES	EC50 (F508del/G550E CFTR)	wild type CFTR activity (wild type CFTR; 24 h incubation with a dose range, 100 nM FSK)	wild type channel activity (wild type CFTR; acute addition together with forskolin (100 nM))
O=C(O)c1ccc([C@H]2C[C@@H](NC(=O)C3(c4ccc5c(c4)OC(F)(F)O5)CC3)c3ccc(OC(F)F)cc3O2)cc1 [GLPG2222, 4-[(2 R,4 R)-4-({[1-(2,2-Difluoro-1,3-benzodioxol-5-yl)cyclopropyl]carbonyl}amino)-7-(difluoromethoxy)-3,4-dihydro-2 H -chromen-2-yl]benzoic Acid]	9 nM	–	–
COC1CCN(C2CCN(c3cc(C(=O)NS(=O)(=O)N(C)C)nc4c3c(C3CCC3)nn4-c3ccc(F)cc3)CC2)CC1 [GLPG2737]	251 nM	dose dependent decrease	decrease

— paper PMC6521598, “Identification of GLPG/ABBV-2737, a Novel Class of Corrector, Which Exerts Functional Synergy With Other CFTR Modulators” (Frontiers in Pharmacology, 2019)
